{"source": "patent US20210177889A1", "about": "“GASEOUS PHARMACEUTICAL COMPOSITION FOR HYPERTENSION THERAPY” (KEIO UNIVERSITY, priority 2019, published 2021)", "key": {"[1]": {"system": "hypertension established after 5/6 nephrectomy", "experiment": "Therapeutic effect of delayed H2 inhalation on hypertension established after 5/6 nephrectomy (tail-cuff)", "type": "in vivo, Lewis rat", "details": "N=17", "experimental": "At about 24 hours after the final gas inhalation of 5/6 nephrectomized rats, blood pressure and heart rate were non-invasively measured using the tail-cuff pressure measurement method (BP-98A, Softron). The hemodynamics parameter was measured three times, and the median was adopted as the representative value. In order to elicit renal hypertension, 5/6 nephrectomy was carried out with slight modification to previously described methods (Nephrology (Carlton) 19, 552-561; 10.1111/nep.12279 (2014); J. Am. Soc. Nephrol. 4, 2023-2031 (1994); and Kidney Int. 40, 29-34; 10.1038/ki.1991.175 (1991).). Briefly, rats were anesthetized by isoflurane inhalation (induction at 4% and maintenance at 1.5%), and upper midline laparotomy of about 4 cm was carried out. Surgical operation was performed under a microscope, the left renal artery branch was identified, and selectively ligated with 7-0 silk at a position as close as possible to the left kidney so that macroscopic infarction is caused in about ⅔ of the left renal cortex. In the first pilot research (FIGS. 1a and 2), a high-temperature cautery pen (AA11, Bovie, Tenn., U.S.A.) was used to add the resection of the infarcted portion of the kidney. Subsequently, the right renal artery, the renal vein, and the urinary duct was ligated with 4-0 silk, and the right kidney were resected. […]"}, "[2]": {"system": "spontaneous hypertension rats (SHR)", "experiment": "Hemodynamics effect of inhaled H2 in spontaneous hypertension rats (telemetry)", "type": "in vivo, rat (SHR/Izumo)", "experimental": "Male Lewis rats (8 weeks-old, body weight 250-300 g), and 10 weeks-old male spontaneous hypertension rats (SHR/Izumo rats; hereinafter simply referred to as SHR) were used (CLEA Japan). Rats were given water and standard food ad libitum, and were not fasted before experiment. Rats were kept under a condition of standardized temperature (22±1° C.) and humidity (55±5) in a 12 hours:12 hours of light-dark cycle. Rats were acclimated to the experimental condition from at least one week before the experiment. This research was approved by institutional animal control committees (Keio University [Tokyo], No. 13002-4; and Nippon Veterinary and Life Science University [Tokyo], No. 30K-61). Rats were randomly assigned to the H2 group or the control group.\nIn order to monitor continuous blood pressure fluctuation, telemetry transmitters were implanted into rats. Specifically, rats were anesthetized with isoflurane, and the left groin was disinfected with 1% chlorhexidine. An incision of about 1.5 cm was made in the left groin, the left femoral artery was exposed, and a telemetry transmitter (HD-S10, Physiotel HD Telemetry, Data Science International) catheter was inserted into the left femoral artery. The tip of the transmitter catheter was placed in the abdominal aorta caudally from the branch of the renal artery. The transmitter body was inserted into a subcutaneous pocket made in the left lower back, and the skin was sutured. All surgical intervention was performed under sterile conditions.\nH2 gas (1.3% H2+21% O2+77.7 N2) and control gas (21% O2+79% N2) were filled into gas cylinders in advance at a factory. The H2 group and the control group were allowed to inhale the H2 gas and the control gas that were mixed in advance. All animals were allowed to inhale the assigned gas at 10 L/minute for 1 hour in an established anesthesia box, and inhaled for an additional three minutes to purge the box (i.e. a total of 63 minutes). In the nephrectomy model and SHR, gas inhalation was repeated every day for 4 weeks and 2 weeks, respectively.\nSpontaneous hypertension rats (SHR) are a well-established hereditary hypertensive model that is broadly used in hypertensive research (Okamoto, K. & Aoki, K. Development of a strain of spontaneously hypertensive rats. Jpn. Circ. J. 27, 282-293 (1963); and Rubattu, S., Struk, B., Kreutz, R., Volpe, M. & Lindpaintner, K. Animal models of genetic hypertension: what can we learn for human hypertension? Clin. Exp. Pharmacol. Physiol. 22, S386-393 (1995)). In order to investigate the consistency of the hypotensive effect of H2 in other hypertensive models, the therapeutic effect of H2 gas against hypertension of SHR was investigated (FIG. 1d). […]"}, "[3]": {"details": "Week 2 compared to Week 1 of daily inhalation, N=3"}, "[4]": {"details": "Week 3 (week after 2 weeks of inhalation)"}}, "data": [{"smiles": "[2H][2H]", "note": "[H2 gas, Molecular hydrogen (H2)]", "values": [{"measurement": "duration of hypotensive effect", "setting": "[1]; delayed inhalation, one hour daily for 4 weeks", "value": "continued through the inhalation duration"}, {"measurement": "blood pressure (established hypertension)", "setting": "[1]; inhalation started 3 weeks after 5/6 nephrectomy, one week after starting H2 inhalation, no statistically significant difference", "value": "began to decrease"}, {"measurement": "increase in blood pressure", "setting": "[2]; [3]", "value": "suppressed"}, {"measurement": "increase in heart rate", "setting": "[2]; [3]", "value": "suppressed"}, {"measurement": "blood pressure after inhalation was stopped", "setting": "[2]; [4]", "value": "stayed low"}, {"measurement": "heart rate after inhalation was stopped", "setting": "[2]; [4]", "value": "stayed low"}]}]}
